Measured values published in patent US7709497B2, “Pyrazolo[3,4-b]pyridine compound, and its use as a PDE4 inhibitor” (Glaxo Group Limited, priority 2004, dated 2010).

Assays:
[1] = system: TNF-α (TNF-alpha) production in Human PBMC (Peripheral Blood Mononuclear Cell); experiment: Inhibition of TNF-α production in Human PBMC assay; type: cell-based; conditions: LPS-stimulated, n=9, read-out: Inhibition of TNF-α production in PBMCs pIC50 (converted)
Description: Test compounds are prepared as a ca. 10 mM stock solution in DMSO and a dilution series prepared in DMSO with 8 successive 3-fold dilutions, either directly from the 10 mM stock solution or from a more dilute solution in DMSO. The compound is added to assay plates using a Biomek Fx liquid handling robot.
PBMC cells (peripheral blood mononuclear cells) are prepared from heparinised human blood from normal volunteers by centrifugation on histopaque at ca. 1000 g for ca. 30 minutes. The cells are collected from the interface, washed by centrifugation (ca. 1300 g, ca. 10 minutes) and resuspended in assay buffer (RPMI 1640 containing 10% foetal calf serum, 1% L-glutamine and 1% penicillin/streptomycin) at 1×10^6 cells/ml. Ca. 50 μl (ca. 50 ul) cells are added to microtitre wells containing ca. 0.5 or ca/1.0 μl (ul) of an appropriately diluted compound solution. Ca. […] The supernatant is removed and the concentrations of TNF are determined by electrochemiluminescence assay using the IGEN technology or by ELISA (see below).
Ca. […] 50 μl (ul) of streptavidin/biotinylated anti-TNF-α antibody mix, ca. 25 μl ruthenium tagged anti-TNF-α monoclonal and ca. 100 μl PBS containing 0.1% bovine serum albumin are added to each well and the plates are sealed and shaken for ca. 2 hours before being read on an IGEN instrument. […]

[2] = molecular target: PDE4D (human recombinant) (Homo sapiens, UniProt Q08499); experiment: PDE4D inhibition, IMAP Fluorescence Polarisation (FP) assay; type: biochemical; conditions: n = 2; accuracy ±about 0.5 log unit; read-out: PDE4D pIC50 (FP assay, mean value) (converted)
Excerpt: Human recombinant PDE4D (HSPDE4D3A) is disclosed in P. A. Baecker et al., “Isolation of a cDNA encoding a human rolipram-sensitive cyclic AMP phoshodiesterase (PDE IVD)”, Gene, 1994, 138, 253-256.
The ability of compounds to inhibit catalytic activity at PDE4B (human recombinant) or PDE4D (human recombinant) can optionally be determined by IMAP Fluorescence Polarisation (FP) assay (IMAP Explorer kit, available from Molecular Devices Corporation, Sunnydale, Calif., USA; Molecular Devices code: R8062) in a 384-well format.
The IMAP FP assay is able to measure PDE activity in an homogenous, non-radioactive assay format. […] Binding of Fl-AMP product to the beads (coated with the immobilised trivalent cations) slows the rotation of the bound Fl-AMP and leads to an increase in the fluorescence polarisation ratio of parallel to perpendicular light. […]
Test compounds (small volume, e.g. ca. 0.5 to 1 microliters (ul), preferably ca. 0.5 ul, of solution in DMSO) are preincubated at ambient temperature (room temperature, e.g. 19-23° C.) in black 384-well microtitre plates (supplier: NUNC, code 262260) with PDE enzyme in 10 mM Tris-HCl buffer pH 7.2, 10 mM MgCl2, 0.1% (w/v) bovine serum albumin, and 0.05% NaN3 for 10-30 minutes. […] The Fluorescence Polarisation (FP) ratio of parallel to perpendicular light is measured using an Analyst™ plate reader (from Molecular Devices Corporation). […]

Chain of PDE4D (human recombinant) (Q08499 1-673 isoform Q08499-2): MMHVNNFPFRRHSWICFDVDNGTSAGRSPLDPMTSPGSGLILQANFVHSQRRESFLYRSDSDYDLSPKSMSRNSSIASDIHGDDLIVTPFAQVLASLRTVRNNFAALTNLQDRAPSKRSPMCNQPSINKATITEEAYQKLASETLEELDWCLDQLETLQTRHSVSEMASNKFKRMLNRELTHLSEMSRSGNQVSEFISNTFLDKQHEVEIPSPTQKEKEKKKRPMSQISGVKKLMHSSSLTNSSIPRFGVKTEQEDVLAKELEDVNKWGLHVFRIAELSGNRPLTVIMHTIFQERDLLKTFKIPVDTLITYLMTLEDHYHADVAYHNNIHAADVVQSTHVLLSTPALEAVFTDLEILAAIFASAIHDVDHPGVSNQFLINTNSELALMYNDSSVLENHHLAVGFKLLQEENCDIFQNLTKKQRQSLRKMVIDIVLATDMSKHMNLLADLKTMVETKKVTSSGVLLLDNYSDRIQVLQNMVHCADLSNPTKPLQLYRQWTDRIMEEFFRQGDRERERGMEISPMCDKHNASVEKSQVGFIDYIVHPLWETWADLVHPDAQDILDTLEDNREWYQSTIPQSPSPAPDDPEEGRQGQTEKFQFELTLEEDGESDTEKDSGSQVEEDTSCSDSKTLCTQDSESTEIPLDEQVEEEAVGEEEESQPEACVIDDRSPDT

- IC50 [2]: 0.55 nM
SMILES: CCn1ncc2c(NC3CCN(C(N)=O)CC3)c(C(=O)NCc3ccc(C)c(C)c3)cnc21 [compound of formula (I), 4-{[1-(aminocarbonyl)-4-piperidinyl]amino}-N-[(3,4-dimethylphenyl)methyl]-1-ethyl-1H-pyrazolo[3,4-b]pyridine-5-carboxamide]
- IC50 [1]: 1.82 nM
